Assay results reported in patent US20070092877A1, “Bcrm-1 genes and uses thereof” (priority 2003, published 2007).

Test system: 293T cells stably transfected with a BCRM-1 expression vector
Test: clonogenic assays of stably transfected 293T cells with cisplatin
Assay type: cell-based
Conditions: clone with the highest level of BCRM-1 vs control vector transfectants, FIG. 3
Text: To investigate whether BCRM-1 could render cells resistant to DNA-damaging agents, 293T cells were stably transfected with a BCRM-1 expression vector (FIG. 3). The BCRM-1 full length EcoRI-XhoI fragment was cloned into the EcoRI-XhoI sites of the pcDNA6/Bsd vector (Clontech, Palo Alto, Calif.). 293T cells were transfected with the BCRM/bsd vector or an empty pcDNA/bsd vector, respectively, by the method described in Example 8 above; Stable transfectants were selected through serial passages in the presence of blasticidin 10 μg/ml (Clontech, Palo Alto, Calif.). These blasticidin-resistant clones were isolated and repicked using the same selection procedure. One of these clones expressed the highest level of BCRM-1 by Western blotting. It was further tested in clonogenic assays and found to be 5-10 times more resistant to DNA damaging agent cisplatin than 293T cells stably transfected with the control vector (FIG. 3).

SMILES: N.N.[Cl][Pt][Cl] [cisplatin]
- resistance to cisplatin of the BCRM-1 expressing clone relative to 293T cells stably transfected with the control vector: 5-10 times
